EPA's ToxRefDB 2

Key:
mouse [1] = conditions: Subchronic oral toxicity in rodents, b6c3f1, Feed, dose end: 13 week, group: systemic
mouse [2] = conditions: Subchronic dermal toxicity, b6c3f1, Topical, dose end: 13 week, group: systemic, systemic / pathology gross / sperm measure / sperm count
rat [3] = conditions: Subchronic dermal toxicity, fischer, Topical, dose end: 13 week, group: systemic, systemic / organ weight / kidney / relative to body weight
rat [4] = conditions: Subchronic oral toxicity in rodents, fischer, Feed, dose end: 13 week
dog [5] = conditions: Sub-acute repeat dose toxicity; beagle; Oral; Gavage/Intubation; dose end: 4 day; group: systemic; systemic / in life observation / clinical signs / erythema + systemic / in life observation / clinical signs / reduced activity + systemic…
primate [6] = conditions: Sub-acute repeat dose toxicity, marmoset, Oral, Gavage/Intubation, dose end: 4 day, group: systemic
dog [7] = conditions: Sub-acute repeat dose toxicity; beagle; Oral; Gavage/Intubation; dose end: 4 day; group: systemic; systemic / clinical chemistry / [other] / [other] + systemic / clinical chemistry / apolipoprotein a1 / apolipoprotein a1 + systemic / …
rat [8] = conditions: Subchronic oral toxicity in rodents, wistar, Gavage/Intubation, dose end: 91 day, group: systemic
primate [9] = conditions: Subchronic oral toxicity in nonrodent, Gavage/Intubation, dose end: 91 day, group: systemic, systemic / in life observation / clinical signs / emesis
rat [10] = conditions: Sub-acute repeat dose toxicity; Oral; Gavage/Intubation; dose end: 5 day; group: systemic; systemic / in life observation / clinical signs / arrhythmia + systemic / in life observation / clinical signs / dehydration + systemic / in…
rabbit = conditions: Sub-acute repeat dose toxicity, Oral, Gavage/Intubation, dose end: 5 day, group: systemic
[11] = systemic / in life observation / body weight / body weight + systemic / in life observation / body weight / body weight gain + systemic / …
[12] = systemic / organ weight / liver / relative to body weight
[13] = group: maternal, reproductive / reproductive performance / estrous cycle / length
[14] = group: systemic, systemic / clinical chemistry / gamma glutamyl transferase (ggt) / gamma glutamyl transferase (ggt) + systemic / in life observation / body …
[15] = group: systemic, systemic / organ weight / liver / absolute + systemic / organ weight / liver / relative to body weight
[16] = systemic / in life observation / clinical signs / defecation (diarrhea) + systemic / pathology microscopic / salivary glands / degeneration…
[17] = systemic / pathology microscopic / salivary glands / degeneration + systemic / hematology / fibrinogen / fibrinogen + systemic / pathology …
[18] = systemic / in life observation / body weight / body weight + systemic / in life observation / clinical signs / abnormal feces + systemic / …
[19] = systemic / pathology microscopic / intestine large / hyperplasia + systemic / pathology microscopic / stomach / hyperplasia
[20] = systemic / in life observation / body weight / body weight + systemic / in life observation / clinical signs / abnormal respiratory sounds…
[21] = systemic / in life observation / clinical signs / nasal discharge + systemic / in life observation / food consumption / food consumption

COc1ccc(C(=O)c2ccccc2)c(O)c1 [2-Hydroxy-4-methoxybenzophenone]
LOAEL (mouse [1]; [11]): > 13900 mg/kg/day | NOAEL (mouse [1]; [11]): ≥ 13900 mg/kg/day | LEL (mouse [1]; [12]): 629 mg/kg/day | NEL (mouse [1]; [12]): < 629 mg/kg/day | LEL (mouse [2]): 22.5 mg/kg/day | LOAEL (mouse [2]): > 364 mg/kg/day | NEL (mouse [2]): < 22.5 mg/kg/day | NOAEL (mouse [2]): ≥ 364 mg/kg/day | LEL (rat [3]): 25 mg/kg/day | LOAEL (rat [3]): > 200 mg/kg/day | NEL (rat [3]): 12.5 mg/kg/day | NOAEL (rat [3]): ≥ 200 mg/kg/day | LEL (rat [4]; [13]): 3260 mg/kg/day | LOAEL (rat [4]; [13]): > 3260 mg/kg/day | NEL (rat [4]; [13]): 1600 mg/kg/day | NOAEL (rat [4]; [13]): ≥ 3260 mg/kg/day | LOAEL (rat [4]; [14]): > 3260 mg/kg/day | NOAEL (rat [4]; [14]): ≥ 3260 mg/kg/day | LEL (rat [4]; [15]): 196 mg/kg/day | NEL (rat [4]; [15]): < 196 mg/kg/day

Nc1cc2c3c(c1)C(c1ccccc1)=N[C@@H](NC(=O)c1cccnc1)C(=O)N3CC2 [CI-1044]
LEL (dog [5]): 50 mg/kg/day | LOAEL (dog [5]): > 50 mg/kg/day | NEL (dog [5]): < 50 mg/kg/day | NOAEL (dog [5]): ≥ 50 mg/kg/day | LOAEL (primate [6]; [16]): > 320 mg/kg/day | NOAEL (primate [6]; [16]): ≥ 320 mg/kg/day | LEL (primate [6]; [17]): 80 mg/kg/day | NEL (primate [6]; [17]): < 80 mg/kg/day | LEL (dog [7]): 20 mg/kg/day | LOAEL (dog [7]): > 20 mg/kg/day | NEL (dog [7]): < 20 mg/kg/day | NOAEL (dog [7]): ≥ 20 mg/kg/day | LOAEL (rat [8]; [18]): > 25 mg/kg/day | NOAEL (rat [8]; [18]): ≥ 25 mg/kg/day | LEL (rat [8]; [19]): 3 mg/kg/day | NEL (rat [8]; [19]): < 3 mg/kg/day | LEL (primate [9]): 1 mg/kg/day | LOAEL (primate [9]): > 15 mg/kg/day | NEL (primate [9]): < 1 mg/kg/day | NOAEL (primate [9]): ≥ 15 mg/kg/day | LOAEL (rat [10]): > 50 mg/kg/day | NEL (rat [10]): 10 mg/kg/day | NOAEL (rat [10]): ≥ 50 mg/kg/day | LOAEL (rabbit; [20]): > 1000 mg/kg/day | NOAEL (rabbit; [20]): ≥ 1000 mg/kg/day | LEL (rabbit; [21]): 50 mg/kg/day | NEL (rabbit; [21]): < 50 mg/kg/day
